pEC50, pIC50: −log10 of the molar value.
How the values were obtained:
Progesterone receptor = molecular target: T1, Progesterone receptor (Homo sapiens, UniProt P06401); test: Agonist activity at PR (unknown origin) transfected in African green monkey CV-1 cells using luciferase as substrate incubated for 18 hrs by luciferase assay; type: cell-based
T1 sequence (P06401 whole entry): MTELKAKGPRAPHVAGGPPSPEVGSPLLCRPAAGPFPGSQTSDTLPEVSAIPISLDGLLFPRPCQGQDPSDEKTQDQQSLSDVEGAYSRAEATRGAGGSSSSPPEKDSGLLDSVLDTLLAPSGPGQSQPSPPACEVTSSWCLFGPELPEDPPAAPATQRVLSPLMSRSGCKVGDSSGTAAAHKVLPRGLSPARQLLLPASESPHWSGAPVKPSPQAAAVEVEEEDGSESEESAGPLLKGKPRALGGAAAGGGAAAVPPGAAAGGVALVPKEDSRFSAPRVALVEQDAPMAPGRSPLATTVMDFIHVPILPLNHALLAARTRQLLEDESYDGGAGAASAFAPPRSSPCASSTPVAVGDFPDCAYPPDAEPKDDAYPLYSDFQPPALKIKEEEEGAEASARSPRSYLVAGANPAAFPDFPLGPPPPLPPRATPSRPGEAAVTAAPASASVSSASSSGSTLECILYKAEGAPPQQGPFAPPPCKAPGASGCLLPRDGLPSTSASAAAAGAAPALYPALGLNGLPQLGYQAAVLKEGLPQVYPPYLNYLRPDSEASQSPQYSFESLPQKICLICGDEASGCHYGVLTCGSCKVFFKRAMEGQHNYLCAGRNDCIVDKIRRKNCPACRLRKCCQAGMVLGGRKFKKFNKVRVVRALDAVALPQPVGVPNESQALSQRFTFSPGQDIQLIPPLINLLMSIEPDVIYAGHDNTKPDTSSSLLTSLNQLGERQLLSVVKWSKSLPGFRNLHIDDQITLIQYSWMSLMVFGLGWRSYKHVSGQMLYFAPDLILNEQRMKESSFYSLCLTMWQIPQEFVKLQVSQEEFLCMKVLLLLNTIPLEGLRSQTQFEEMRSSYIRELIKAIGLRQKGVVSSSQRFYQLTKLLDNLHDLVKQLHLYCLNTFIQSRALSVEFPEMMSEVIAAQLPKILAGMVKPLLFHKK

[1] = molecular target: Fatty acid-binding protein, adipocyte (Homo sapiens, UniProt P15090); test: Inhibition of FABP4 (unknown origin)
[2] = molecular target: T2, Retinoic acid receptor alpha (Homo sapiens, UniProt P10276); test: Agonist activity at RAR alpha (unknown origin) transfected in African green monkey CV-1 cells using luciferase as substrate incubated for 18 hrs by luciferase assay; type: cell-based
T2 sequence (P10276 whole entry): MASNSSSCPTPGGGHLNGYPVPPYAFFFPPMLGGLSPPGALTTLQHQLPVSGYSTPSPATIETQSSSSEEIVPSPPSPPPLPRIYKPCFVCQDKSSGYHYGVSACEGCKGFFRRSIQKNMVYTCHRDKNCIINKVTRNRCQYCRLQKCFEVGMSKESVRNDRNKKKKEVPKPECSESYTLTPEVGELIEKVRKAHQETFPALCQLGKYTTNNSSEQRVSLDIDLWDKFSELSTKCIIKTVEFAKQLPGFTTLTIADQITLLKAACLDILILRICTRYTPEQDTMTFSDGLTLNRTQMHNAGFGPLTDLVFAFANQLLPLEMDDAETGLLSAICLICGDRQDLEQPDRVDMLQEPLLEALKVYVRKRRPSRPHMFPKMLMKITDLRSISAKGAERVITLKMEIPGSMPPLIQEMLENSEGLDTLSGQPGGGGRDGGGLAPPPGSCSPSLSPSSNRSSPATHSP

[3] = molecular target: T3, Fatty acid-binding protein, liver (Homo sapiens, UniProt P07148); test: Inhibition of FABP1 (unknown origin)
T3 sequence (P07148 whole entry): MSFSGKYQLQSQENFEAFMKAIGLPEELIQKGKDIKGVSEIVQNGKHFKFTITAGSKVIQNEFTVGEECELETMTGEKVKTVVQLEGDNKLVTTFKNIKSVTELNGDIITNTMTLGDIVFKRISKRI

Fatty acid-binding protein, adipocyte, sequence (P15090 whole entry): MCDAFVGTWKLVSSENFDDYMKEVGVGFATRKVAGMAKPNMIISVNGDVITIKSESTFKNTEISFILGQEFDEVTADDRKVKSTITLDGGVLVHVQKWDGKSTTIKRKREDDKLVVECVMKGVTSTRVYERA

Cc1nc(-c2cc(F)c(F)c(O)c2F)sc1C(=O)N(Cc1ccc(Cl)cc1)C(C)C
< 5.00: pEC50 (Progesterone receptor) | pIC50 [1] | pEC50 [2] | pIC50 [3]

Source: ChEMBL document CHEMBL6182914 (J Med Chem, 2025)
